In ChEMBL document CHEMBL1201862, “PubChem BioAssay data set” (2004):
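How tested: cells in 96-well plates exposed to compound for 48 hours at five concentrations. GI50: concentration for 50% inhibition of growth.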 Activity calls are given as the source filed them. No stated cut-off is given here; in the data, active = GI50 up to about 1.1 µM and inactive = higher.

Columns and labels:
Test in all cases: NCI tumour cell line growth inhibition, 48 h
UACC-257 = tested on: UACC-257
A549 = tested on: A549
DLD-1 = tested on: DLD-1
NCI/ADR-RES = tested on: NCI/ADR-RES
M19-MEL = tested on: M19-MEL
SNB-78 = tested on: SNB-78
RXF 393 = tested on: RXF 393
COLO 205 = tested on: COLO 205
DMS-114 = tested on: DMS-114
SF-295 = tested on: SF-295
RPMI-8226 = tested on: RPMI-8226
DMS-273 = tested on: DMS-273
CCRF-CEM = tested on: CCRF-CEM
SW-620 = tested on: SW-620
SN12C = tested on: SN12C
SK-OV-3 = tested on: SK-OV-3
CAKI-1 = tested on: CAKI-1
UACC-62 = tested on: UACC-62
HOP-62 = tested on: HOP-62
MOLT-4 = tested on: MOLT-4
SK-MEL-5 = tested on: SK-MEL-5
A498 = tested on: A498
HCC 2998 = tested on: HCC 2998
XF498 = tested on: XF498
SNB-75 = tested on: SNB-75
K562 = tested on: K562
NCI-H226 = tested on: NCI-H226
HCT-116 = tested on: HCT-116
SNB-19 = tested on: SNB-19
SF-539 = tested on: SF-539
NCI-H522 = tested on: NCI-H522
EKVX = tested on: EKVX
SF-268 = tested on: SF-268
OVCAR-3 = tested on: OVCAR-3
UO-31 = tested on: UO-31
HL-60 = tested on: HL-60
KM12 = tested on: KM12
OVCAR-5 = tested on: OVCAR-5
SK-MEL-28 = tested on: SK-MEL-28
IGROV-1 = tested on: IGROV-1
HOP-92 = tested on: HOP-92
HCT-15 = tested on: HCT-15
NCI-H460 = tested on: NCI-H460
HT-29 = tested on: HT-29
MCF7 = tested on: MCF7
U-251 = tested on: U-251
OVCAR-8 = tested on: OVCAR-8
KM-20L2 = tested on: KM-20L2
Malme-3M = tested on: Malme-3M
NCI-H23 = tested on: NCI-H23
HOP-18 = tested on: HOP-18
SK-MEL-2 = tested on: SK-MEL-2
OVCAR-4 = tested on: OVCAR-4
LOX IMVI = tested on: LOX IMVI
TK-10 = tested on: TK-10
786-0 = tested on: 786-0
M14 = tested on: M14
LXFL 529 = tested on: LXFL 529
ACHN = tested on: ACHN

Measured: GI50

CCN(CC)CCCOC(=O)/C=C/c1c(C)[nH]c(=O)[nH]c1=O
inactive: UACC-257 > 625 µM | A549 > 625 µM | DLD-1 > 625 µM | NCI/ADR-RES > 625 µM | M19-MEL > 625 µM | SNB-78 542 µM | RXF 393 > 99.1 µM | COLO 205 > 625 µM | DMS-114 > 625 µM | SF-295 525 µM | RPMI-8226 > 625 µM | DMS-273 > 625 µM | CCRF-CEM > 625 µM | SW-620 > 625 µM | SN12C > 243 µM | SK-OV-3 > 625 µM | CAKI-1 > 625 µM | UACC-62 > 625 µM | HOP-62 > 625 µM | MOLT-4 > 625 µM | SK-MEL-5 > 625 µM | A498 > 95.1 µM | HCC 2998 > 625 µM | XF498 > 625 µM | SNB-75 > 625 µM | K562 > 625 µM | NCI-H226 > 625 µM | HCT-116 > 625 µM | SNB-19 > 625 µM | SF-539 > 625 µM | NCI-H522 > 625 µM | EKVX > 625 µM | SF-268 > 625 µM | OVCAR-3 > 625 µM | UO-31 > 625 µM | HL-60 > 625 µM | KM12 > 625 µM | OVCAR-5 > 625 µM | SK-MEL-28 > 625 µM | IGROV-1 > 625 µM | HOP-92 56.9 µM | NCI-H460 > 625 µM | HT-29 > 394 µM | MCF7 > 625 µM | U-251 > 625 µM | OVCAR-8 135 µM | KM-20L2 > 625 µM | Malme-3M > 625 µM | NCI-H23 > 625 µM | HOP-18 > 625 µM | SK-MEL-2 > 394 µM | OVCAR-4 > 394 µM | LOX IMVI > 625 µM
> 625 µM: HCT-15

COc1ccccc1NC(=O)C1=C(C)NC(C)=C(C(=O)Nc2ccccc2OC)C1c1ccc(C)cc1
inactive: UACC-257 51.5 µM | M19-MEL 42.5 µM | SNB-78 56.5 µM | TK-10 69.5 µM | RXF 393 35 µM | COLO 205 12.6 µM | DMS-114 51.9 µM | SF-295 68.4 µM | RPMI-8226 37.8 µM | DMS-273 40 µM | SW-620 > 100 µM | SN12C > 100 µM | SK-OV-3 > 100 µM | CAKI-1 > 100 µM | UACC-62 65.3 µM | HOP-62 > 100 µM | SK-MEL-5 16.9 µM | A498 23.3 µM | HCC 2998 97.5 µM | XF498 24.3 µM | SNB-75 58.5 µM | K562 18.2 µM | NCI-H226 10.5 µM | HCT-116 29.9 µM | SNB-19 > 100 µM | SF-539 > 100 µM | 786-0 > 100 µM | NCI-H522 60.7 µM | EKVX 47.6 µM | SF-268 > 100 µM | OVCAR-3 > 100 µM | M14 64.6 µM | LXFL 529 74.1 µM | UO-31 43 µM | KM12 43 µM | OVCAR-5 70.3 µM | SK-MEL-28 > 100 µM | IGROV-1 58.7 µM | HOP-92 > 100 µM | NCI-H460 31.8 µM | ACHN 17.3 µM | HT-29 > 100 µM | U-251 > 100 µM | OVCAR-8 58.9 µM | KM-20L2 > 100 µM | Malme-3M > 100 µM | NCI-H23 94.8 µM | HOP-18 76 µM | SK-MEL-2 48.2 µM | OVCAR-4 43.4 µM | LOX IMVI > 100 µM
33.1 µM: HCT-15
